The test system of data set [1] is Cell membrane. Put plainly: Induction of cytoplasmic membrane depolarization in methicillin-resistant Staphylococcus aureus clinical isolate MRSA-16 assessed as increase in fluorescence intensity at 32 ug/ml measured every 2 mins for 20 mins by SYTOX green staining based analysis. Format: cell membranes. As to conditions: dose 32.0 µg/ml.
Data set [2] concerns Cell membrane. Nature of the data set: Induction of cytoplasmic membrane depolarization in methicillin-resistant Staphylococcus aureus clinical isolate MRSA-16 assessed as fold increase in fluorescence intensity at 32 ug/ml measured every 2 mins for 20 mins by SYTOX green staining based analysis. Format: cell membranes. As to conditions: dose 32.0 µg/ml.
For data set [3], the system named is Cell membrane. Nature of the data set: Induction of cell membrane depolarization in methicillin-resistant Staphylococcus aureus clinical isolate MRSA-16 assessed as fold increase in fluorescence intensity at 32 ug/ml measured every 2 mins for 20 mins by DISC3(5) staining based analysis. As to conditions: dose 32.0 µg/ml. It is filed as cell membranes.
Data set [4] relates to Staphylococcus aureus. Nature of the data set: Antibacterial activity against methicillin-resistant Staphylococcus aureus clinical isolate MRSA-20 measured after 16 to 18 hrs by CLSI method. Format: functional. As to conditions: time 16-18 hrs.
In data set [5] the test system is Staphylococcus aureus. Put plainly: Antibacterial activity against methicillin-resistant Staphylococcus aureus clinical isolate MRSA-13 measured after 16 to 18 hrs by CLSI method. It is filed as functional. As to conditions: time 16-18 hrs.
In data set [6] the test system is Staphylococcus aureus. Put plainly: Antibacterial activity against Staphylococcus aureus ATCC 29213 measured after 16 to 18 hrs by CLSI method. Format: functional. As to conditions: time 16-18 hrs.
Data set [7] relates to Staphylococcus aureus. Put plainly: Antibacterial activity against methicillin-resistant Staphylococcus aureus clinical isolate MRSA-17 measured after 16 to 18 hrs by CLSI method. Format: functional. As to conditions: time 16-18 hrs.
Data set [8] has as its system Staphylococcus aureus. Nature of the data set: Antibacterial activity against methicillin-resistant Staphylococcus aureus clinical isolate MRSA-16 measured after 16 to 18 hrs by CLSI method. It is filed as functional. As to conditions: time 16-18 hrs.
Data set [9] relates to Staphylococcus aureus. Nature of the data set: Antibacterial activity against methicillin-resistant Staphylococcus aureus clinical isolate MRSA-23 measured after 16 to 18 hrs by CLSI method. Format: functional. As to conditions: time 16-18 hrs.
Another data set deals with Escherichia coli. Nature of the data set: Antibacterial activity against Escherichia coli ATCC25922 measured after 16 to 18 hrs by CLSI method. As to conditions: time 16-18 hrs. It is filed as functional.
Data set [10] can be described thus: Selectivity index, ratio of HC50 for hemolytic activity in sheep erythrocytes to MIC for antibacterial activity against Staphylococcus aureus ATCC 29213. It is filed as toxicity, cell-based. As to conditions: read-out: Selectivity Index.
The test system of data set [11] is Staphylococcus aureus. Put plainly: Antibacterial activity against methicillin-resistant Staphylococcus aureus clinical isolate MRSA-22 measured after 16 to 18 hrs by CLSI method. Format: functional. As to conditions: time 16-18 hrs.
A short description of data set [12]: Hemolytic activity in sheep erythrocytes incubated for 1 hr by absorbance based analysis. Format: toxicity, cell-based, Ovis aries, Erythrocyte.
For data set [13], the system named is Staphylococcus aureus. Nature of the data set: Antibacterial activity against methicillin-resistant Staphylococcus aureus clinical isolate MRSA-14 measured after 16 to 18 hrs by CLSI method. Format: functional. As to conditions: time 16-18 hrs.
For data set [14], the system named is Staphylococcus aureus. Nature of the data set: Antibacterial activity against methicillin-resistant Staphylococcus aureus clinical isolate MRSA-21 measured after 16 to 18 hrs by CLSI method. It is filed as functional. As to conditions: time 16-18 hrs.
Data set [15] relates to Staphylococcus aureus. Put plainly: Antibacterial activity against methicillin-resistant Staphylococcus aureus clinical isolate MRSA-11 measured after 16 to 18 hrs by CLSI method. Format: functional. As to conditions: time 16-18 hrs.
The test system of data set [16] is Staphylococcus aureus. Nature of the data set: Antibacterial activity against methicillin-resistant Staphylococcus aureus clinical isolate MRSA-18 measured after 16 to 18 hrs by CLSI method. As to conditions: time 16-18 hrs. It is filed as functional.

Values after ≈ are worked out from the molar mass of the structure shown. Active and inactive are the calls of the source. No cut-off for these calls is given here.

On to `CC[C@H](C)[C@H](NC(=O)CN)C(=O)NCC(=O)N[C@@H](C)C(=O)N[C@H](C(=O)N[C@@H](CC(C)C)C(=O)N[C@@H](CCCCN)C(=O)N[C@H](C(=O)N[C@@H](CC(C)C)C(=O)N[C@H](C(=O)N[C@H](C(=O)NCC(=O)N[C@@H](CC(C)C)C(=O)N1CCC[C@H]1C(=O)N[C@@H](C)C(=O)N[C@@H](CC(C)C)C(=O)N[C@H](C(=O)N[C@@H](CO)C(=O)N[C@@H](Cc1c[nH]c2ccccc12)C(=O)N[C@H](C(=O)N[C@@H](CCCCN)C(=O)N[C@@H](CCCNC(=N)N)C(=O)N[C@@H](CCCCN)C(=O)N[C@@H](CCCNC(=N)N)C(=O)N[C@@H](CCC(N)=O)C(=O)N[C@@H](CCC(N)=O)C(N)=O)[C@@H](C)CC)[C@@H](C)CC)[C@@H](C)O)[C@@H](C)O)C(C)C)C(C)C`, for which, in the data set on Cell membrane [1], the outcome was Active. Further, the fold change (FC) in the data set on Cell membrane [2] came out at 7; in the data set with Cell membrane [3], 4.4.

As to `COc1cc(OCCCCN2CCOCC2)c(CC=C(C)C)c2c1C(=O)CC(c1ccc(OCCCCN3CCOCC3)cc1)O2` (stereo not drawn), the MIC was 32 µg/mL (≈ 50.2 µM) against Staphylococcus aureus [4]; 64 µg/mL (≈ 100 µM) with Staphylococcus aureus [5]; 32 µg/mL (≈ 50.2 µM) in the data set with Staphylococcus aureus [6]; 32 µg/mL (≈ 50.2 µM) with Staphylococcus aureus [7]; over 128 µg/mL in the data set with Staphylococcus aureus [8]; 32 µg/mL (≈ 50.2 µM) in the data set with Staphylococcus aureus [9]. In addition, the minimum inhibitory concentration (MIC) against Escherichia coli is over 128 µg/mL; in the data set with Staphylococcus aureus [11] it was 32 µg/mL (≈ 50.2 µM); with Staphylococcus aureus [13] it was 64 µg/mL (≈ 100 µM); in the data set with Staphylococcus aureus [14] it was 64 µg/mL (≈ 100 µM); in the data set with Staphylococcus aureus [15], 64 µg/mL (≈ 100 µM); against Staphylococcus aureus [16] it was 32 µg/mL (≈ 50.2 µM). The selectivity ratio in data set [10] was over 20. The compound further displayed an HC50 at 1 h in [12] of over 640 µg/mL.

As to `CCCCN(CCCC)CCCCOc1ccc(C2CC(=O)c3c(OC)cc(OCCCCN(CCCC)CCCC)c(CC=C(C)C)c3O2)cc1` (stereo not drawn), the MIC against Staphylococcus aureus [4] is 4 µg/mL (≈ 5.55 µM); against Staphylococcus aureus [5], 8 µg/mL (≈ 11.1 µM); in the data set on Staphylococcus aureus [6] it was 4 µg/mL (≈ 5.55 µM); in the data set with Staphylococcus aureus [7], 4 µg/mL (≈ 5.55 µM); against Staphylococcus aureus [8], 4 µg/mL (≈ 5.55 µM); with Staphylococcus aureus [9], 8 µg/mL (≈ 11.1 µM). For the same compound, the MIC against Escherichia coli was over 128 µg/mL; in the data set on Staphylococcus aureus [11], 8 µg/mL (≈ 11.1 µM); in the data set on Staphylococcus aureus [13] it was 4 µg/mL (≈ 5.55 µM); in the data set with Staphylococcus aureus [14], 8 µg/mL (≈ 11.1 µM); against Staphylococcus aureus [15], 8 µg/mL (≈ 11.1 µM); in the data set on Staphylococcus aureus [16] it was 8 µg/mL (≈ 11.1 µM). The selectivity ratio in data set [10] was 300. In data set [12], the concentration for 50% haemolysis (HC50) at 1 h worked out at 1200 µg/mL.

In the case of `COc1cc(OCCCCCN2CCC(C)CC2)c(CC=C(C)C)c2c1C(=O)CC(c1ccc(OCCCCCN3CCC(C)CC3)cc1)O2` (stereo not drawn), the MIC turned out to be 8 µg/mL (≈ 11.6 µM) with Staphylococcus aureus [4]; 8 µg/mL (≈ 11.6 µM) in the data set on Staphylococcus aureus [5]; 8 µg/mL (≈ 11.6 µM) with Staphylococcus aureus [6]; 8 µg/mL (≈ 11.6 µM) in the data set on Staphylococcus aureus [7]; 4 µg/mL (≈ 5.81 µM) against Staphylococcus aureus [8]; 8 µg/mL (≈ 11.6 µM) in the data set with Staphylococcus aureus [9]. For the same compound, the MIC was over 128 µg/mL against Escherichia coli; 8 µg/mL (≈ 11.6 µM) in the data set on Staphylococcus aureus [11]; 8 µg/mL (≈ 11.6 µM) in the data set on Staphylococcus aureus [13]; 4 µg/mL (≈ 5.81 µM) against Staphylococcus aureus [14]; 4 µg/mL (≈ 5.81 µM) against Staphylococcus aureus [15]; 8 µg/mL (≈ 11.6 µM) with Staphylococcus aureus [16]. Further, the selectivity ratio in [10] was over 160. For the same compound, in data set [12], the HC50 at 1 h was over 1280 µg/mL.

In the case of `CCCCN(CCCC)CCCCCOc1ccc(C2CC(=O)c3c(OC)cc(OCCCCCN(CCCC)CCCC)c(CC=C(C)C)c3O2)cc1` (stereo not drawn), the MIC was determined as 4 µg/mL (≈ 5.34 µM) with Staphylococcus aureus [4]; 4 µg/mL (≈ 5.34 µM) against Staphylococcus aureus [5]; 4 µg/mL (≈ 5.34 µM) against Staphylococcus aureus [6]; 4 µg/mL (≈ 5.34 µM) with Staphylococcus aureus [7]; 4 µg/mL (≈ 5.34 µM) in the data set with Staphylococcus aureus [8]; 8 µg/mL (≈ 10.7 µM) against Staphylococcus aureus [9]. Besides, the MIC in the data set with Escherichia coli is over 128 µg/mL; with Staphylococcus aureus [11] it was 8 µg/mL (≈ 10.7 µM); with Staphylococcus aureus [13], 4 µg/mL (≈ 5.34 µM); in the data set with Staphylococcus aureus [14] it was 8 µg/mL (≈ 10.7 µM); against Staphylococcus aureus [15], 8 µg/mL (≈ 10.7 µM); with Staphylococcus aureus [16], 8 µg/mL (≈ 10.7 µM). In data set [10], the selectivity ratio came out at 245. The same compound showed an HC50 at 1 h in data set [12] of 980 µg/mL.

On to `COc1cc(OCCCN2CCCCC2)c(CC=C(C)C)c2c1C(=O)CC(c1ccc(OCCCN3CCCCC3)cc1)O2` (stereo not drawn), for which the MIC against Staphylococcus aureus [4] is over 128 µg/mL; against Staphylococcus aureus [5], over 128 µg/mL; against Staphylococcus aureus [6], 64 µg/mL (≈ 106 µM); against Staphylococcus aureus [7], over 128 µg/mL; with Staphylococcus aureus [8] it was 32 µg/mL (≈ 52.9 µM); in the data set on Staphylococcus aureus [9], over 128 µg/mL. For the same compound, the MIC with Escherichia coli, in the data set with Staphylococcus aureus [11], in the data set with Staphylococcus aureus [13], in the data set with Staphylococcus aureus [14], with Staphylococcus aureus [15] and against Staphylococcus aureus [16] was over 128 µg/mL each time. Besides, the selectivity ratio in data set [10] stood at 7.3. Besides, in data set [12], the HC50 at 1 h amounted to 467 µg/mL.

In general, MIC refers to the least concentration at which growth counts as inhibited. Lower therefore signals a more susceptible organism. A word on the HC50: it is the concentration giving 50% haemolysis. Read a low HC50 as more damage to red cells.

For the origin of these results see ChEMBL document CHEMBL5505992, “Novel membrane-targeting isoxanthohumol-amine conjugates for combating methicillin-resistant Staphylococcus aureus (MRSA) infections” (Eur J Med Chem, 2024).
